In ChEMBL document CHEMBL1134025, “Thiosugars. Part 9: synthesis and biological evaluation of some 4'-thio-L-arabino nucleoside analogues” (2001):
Converted amounts (≈) assume the structure as drawn. The source made the active and inactive calls. No cut-off for these calls is given here.

How the values were obtained:
Coxsackievirus B4 [1] = test: Cytotoxicity was evaluated against Coxsackie B4 virus at 200-400 uM; IA=inactive; assay type: functional, organism-based
[2] = tested on: Mammalian orthoreovirus 1; test: Cytotoxicity was evaluated against Reo virus-1 at 200-400 uM; IA=inactive; assay type: functional, organism-based; conditions: reo virus type 1
Sindbis virus [3] = test: Cytotoxicity was evaluated against Sindbis virus at 200-400 uM; IA=inactive; assay type: functional, organism-based
Human alphaherpesvirus 1 [4] = test: Cytotoxicity was evaluated against HSV-1 at 200-400 uM; IA=inactive; assay type: functional, organism-based
Human alphaherpesvirus 3 [5] = test: Cytotoxicity was evaluated against VZV at 200-400 uM; IA=inactive; assay type: functional, organism-based
Human alphaherpesvirus 2 [6] = test: Cytotoxicity was evaluated against HSV-2 at 200-400 uM; IA=inactive; assay type: functional, organism-based
Punta Toro virus [7] = test: Cytotoxicity was evaluated against Punta Toro virus at 200-400 uM; IA=inactive; assay type: functional, organism-based
Vaccinia virus = conditions: Orthopoxvirus vaccinia
[8] = tested on: Human immunodeficiency virus 2; test: Cytotoxicity was evaluated against HIV-2 at 200-400 uM; IA=inactive; assay type: functional, organism-based
[9] = tested on: Respiratory syncytial virus; test: Cytotoxicity was evaluated against Respiratory syncytial virus at 200-400 uM; IA=inactive; assay type: functional, organism-based
Human respirovirus 3 [10] = test: Cytotoxicity was evaluated against Parainfluenza-3 virus at 200-400 uM; IA=inactive; assay type: functional, organism-based
Human betaherpesvirus 5 [11] = test: Cytotoxicity was evaluated against HCMV at 200-400 uM; IA=inactive; assay type: functional, organism-based
[12] = tested on: Vesicular stomatitis virus
[13] = tested on: Human immunodeficiency virus 1; test: Cytotoxicity was evaluated against HIV-1 at 200-400 uM; IA=inactive; assay type: functional, organism-based
[14] = tested on: Respiratory syncytial virus; test: Minimum inhibitory concentration required to reduce Respiratory syncytial virus induced cytopathogenicity by 50%; assay type: functional; conditions: human respiratory syncytial virus
Human betaherpesvirus 5 [15] = test: Minimum inhibitory concentration required to reduce HCMV induced cytopathogenicity by 50%; assay type: functional
Punta Toro virus [16] = test: Minimum inhibitory concentration required to reduce Punta Toro virus induced cytopathogenicity by 50%; assay type: functional
[17] = tested on: Mammalian orthoreovirus 1; test: Minimum inhibitory concentration required to reduce Reo virus-1 induced cytopathogenicity by 50%; assay type: functional, reo virus type 1
Sindbis virus [18] = test: Minimum inhibitory concentration required to reduce Sindbis virus induced cytopathogenicity by 50%; assay type: functional
Coxsackievirus B4 [19] = test: Minimum inhibitory concentration required to reduce Coxsackie B4 virus induced cytopathogenicity by 50%; assay type: functional; conditions: Enterovirus B
[20] = tested on: Human immunodeficiency virus 1; test: Minimum inhibitory concentration required to reduce HIV-1 induced cytopathogenicity by 50%; assay type: functional
[21] = tested on: Vesicular stomatitis virus; test: Minimum inhibitory concentration required to reduce Vesicular stomatitis virus induced cytopathogenicity by 50%; assay type: functional
Human respirovirus 3 [22] = test: Minimum inhibitory concentration required to reduce Parainfluenza-3 virus induced cytopathogenicity by 50%; assay type: functional
[23] = tested on: Human immunodeficiency virus 2; test: Minimum inhibitory concentration required to reduce HIV-2 induced cytopathogenicity by 50%; assay type: functional
Human alphaherpesvirus 3 [24] = test: Minimum inhibitory concentration required to reduce VZV induced cytopathogenicity by 50%; assay type: functional
Human alphaherpesvirus 1 [25] = test: Minimum inhibitory concentration required to reduce HSV-1 induced cytopathogenicity by 50%; assay type: functional
Human alphaherpesvirus 2 [26] = test: Minimum inhibitory concentration required to reduce HSV-2 induced cytopathogenicity by 50%; assay type: functional
Human alphaherpesvirus 1 [27] = test: Minimum inhibitory concentration required to reduce HSV-1(KOS) induced cytopathogenicity by 50%; assay type: functional

| Structure (SMILES) | Cytotoxicity (Coxsackievirus B4 [1]) | Cytotoxicity [2] | Cytotoxicity (Sindbis virus [3]) | Cytotoxicity (Human alphaherpesvirus 1 [4]) | Cytotoxicity (Human alphaherpesvirus 3 [5]) | Cytotoxicity (Human alphaherpesvirus 2 [6]) | Cytotoxicity (Punta Toro virus [7]) | Cytotoxicity (Vaccinia virus) | Cytotoxicity [8] | Cytotoxicity [9] | Cytotoxicity (Human respirovirus 3 [10]) | Cytotoxicity (Human betaherpesvirus 5 [11]) | Cytotoxicity [12] | Cytotoxicity [13] | MIC [14] | MIC (Human betaherpesvirus 5 [15]) | MIC (Punta Toro virus [16]) | MIC [17] | MIC (Sindbis virus [18]) | MIC (Coxsackievirus B4 [19]) | further results |
| --- | --- | --- | --- | --- | --- | --- | --- | --- | --- | --- | --- | --- | --- | --- | --- | --- | --- | --- | --- | --- | --- |
| Nc1ncnc2c1ncn2C1S[C@@H](COCc2ccccc2)[C@H](OCc2ccccc2)[C@H]1OCc1ccccc1 (stereo partly drawn) | inactive | inactive | inactive | inactive | inactive | inactive | inactive | inactive | inactive | inactive | inactive | inactive | inactive | inactive |  |  |  |  |  |  |  |
| Nc1ccn(C2S[C@@H](COCc3ccccc3)[C@H](OCc3ccccc3)[C@H]2OCc2ccccc2)c(=O)n1 (stereo partly drawn) | inactive | inactive | inactive | inactive | inactive | inactive | inactive | inactive | inactive | inactive | inactive | inactive | inactive | inactive |  |  |  |  |  |  |  |
| O=c1nc(-n2cncn2)ccn1C1S[C@@H](COCc2ccccc2)[C@H](OCc2ccccc2)[C@H]1OCc1ccccc1 (stereo partly drawn) | inactive | inactive | inactive | inactive | inactive | inactive | inactive | inactive | inactive | inactive | inactive | inactive | inactive | inactive |  |  |  |  |  |  |  |
| Cc1cn([C@H]2S[C@@H](CO)[C@H](O)[C@H]2O)c(=O)[nH]c1=O |  |  |  |  |  |  |  |  |  |  |  |  |  |  | 400 µg/mL (≈ 1460 µM) | 400 µg/mL (≈ 1460 µM) | 400 µg/mL (≈ 1460 µM) | 400 µg/mL (≈ 1460 µM) | 400 µg/mL (≈ 1460 µM) | 400 µg/mL (≈ 1460 µM) | MIC [20]: 400 µg/mL (≈ 1460 µM); MIC [21]: 400 µg/mL (≈ 1460 µM); MIC (Human respirovirus 3 [22]): 400 µg/mL (≈ 1460 µM); MIC [23]: 400 µg/mL (≈ 1460 µM); MIC (Human alphaherpesvirus 3 [24]): 400 µg/mL (≈ 1460 µM); MIC (Human alphaherpesvirus 1 [25]): 400 µg/mL (≈ 1460 µM); MIC (Human alphaherpesvirus 2 [26]): 400 µg/mL (≈ 1460 µM) |
| CC(=O)OC1S[C@@H](COCc2ccccc2)[C@H](OCc2ccccc2)[C@H]1OCc1ccccc1 (stereo partly drawn) | inactive | inactive | inactive | inactive | inactive | inactive | inactive | inactive | inactive | inactive | inactive | inactive | inactive | inactive |  |  |  |  |  |  |  |
| O=c1ccn([C@H]2S[C@@H](CO)[C@H](O)[C@H]2O)c(=O)[nH]1 |  |  |  |  |  |  |  |  |  |  |  |  |  |  | 400 µg/mL (≈ 1540 µM) | 400 µg/mL (≈ 1540 µM) | 400 µg/mL (≈ 1540 µM) | 400 µg/mL (≈ 1540 µM) | 400 µg/mL (≈ 1540 µM) | 400 µg/mL (≈ 1540 µM) | MIC (Human alphaherpesvirus 1 [27]): 48 µg/mL (≈ 184 µM); MIC [20]: 400 µg/mL (≈ 1540 µM); MIC [21]: 400 µg/mL (≈ 1540 µM); MIC (Human respirovirus 3 [22]): 400 µg/mL (≈ 1540 µM); MIC [23]: 400 µg/mL (≈ 1540 µM); MIC (Human alphaherpesvirus 3 [24]): 400 µg/mL (≈ 1540 µM); MIC (Human alphaherpesvirus 2 [26]): 400 µg/mL (≈ 1540 µM) |
| O=c1[nH]c(=O)n(C2S[C@@H](CO)[C@H](O)[C@H]2O)cc1Cl (stereo partly drawn) | inactive | inactive | inactive | inactive | inactive | inactive | inactive | inactive | inactive | inactive | inactive | inactive | inactive | inactive |  |  |  |  |  |  |  |
| O=c1[nH]c(=O)n(C2S[C@@H](CO)[C@H](O)[C@H]2O)cc1Br (stereo partly drawn) | inactive | inactive | inactive | inactive | inactive | inactive | inactive | inactive | inactive | inactive | inactive | inactive | inactive | inactive |  |  |  |  |  |  |  |
| Nc1ncnc2c1ncn2[C@H]1S[C@@H](CO)[C@H](O)[C@H]1O |  |  |  |  |  |  |  |  |  |  |  |  |  |  | 400 µg/mL (≈ 1410 µM) | 400 µg/mL (≈ 1410 µM) | 400 µg/mL (≈ 1410 µM) | 48 µg/mL (≈ 169 µM) | 400 µg/mL (≈ 1410 µM) | 400 µg/mL (≈ 1410 µM) | MIC [20]: 400 µg/mL (≈ 1410 µM); MIC [21]: 400 µg/mL (≈ 1410 µM); MIC (Human respirovirus 3 [22]): 400 µg/mL (≈ 1410 µM); MIC [23]: 400 µg/mL (≈ 1410 µM); MIC (Human alphaherpesvirus 3 [24]): 400 µg/mL (≈ 1410 µM); MIC (Human alphaherpesvirus 1 [25]): 400 µg/mL (≈ 1410 µM); MIC (Human alphaherpesvirus 2 [26]): 400 µg/mL (≈ 1410 µM) |
| Nc1ncnc2c1ncn2[C@@H]1S[C@@H](CO)[C@H](O)[C@H]1O |  |  |  |  |  |  |  |  |  |  |  |  |  |  | 400 µg/mL (≈ 1410 µM) | 400 µg/mL (≈ 1410 µM) | 400 µg/mL (≈ 1410 µM) | 400 µg/mL (≈ 1410 µM) | 400 µg/mL (≈ 1410 µM) | 400 µg/mL (≈ 1410 µM) | MIC [20]: 400 µg/mL (≈ 1410 µM); MIC [21]: 400 µg/mL (≈ 1410 µM); MIC (Human respirovirus 3 [22]): 400 µg/mL (≈ 1410 µM); MIC [23]: 400 µg/mL (≈ 1410 µM); MIC (Human alphaherpesvirus 3 [24]): 400 µg/mL (≈ 1410 µM); MIC (Human alphaherpesvirus 1 [25]): 400 µg/mL (≈ 1410 µM); MIC (Human alphaherpesvirus 2 [26]): 400 µg/mL (≈ 1410 µM) |
| Nc1ccn(C2S[C@@H](CO)[C@H](O)[C@H]2O)c(=O)n1 (stereo partly drawn) |  |  |  |  |  |  |  |  |  |  |  |  |  |  | 400 µg/mL (≈ 1540 µM) | 400 µg/mL (≈ 1540 µM) | 400 µg/mL (≈ 1540 µM) | 400 µg/mL (≈ 1540 µM) | 400 µg/mL (≈ 1540 µM) | 400 µg/mL (≈ 1540 µM) | MIC [20]: 400 µg/mL (≈ 1540 µM); MIC [21]: 400 µg/mL (≈ 1540 µM); MIC (Human respirovirus 3 [22]): 400 µg/mL (≈ 1540 µM); MIC [23]: 400 µg/mL (≈ 1540 µM); MIC (Human alphaherpesvirus 3 [24]): 400 µg/mL (≈ 1540 µM); MIC (Human alphaherpesvirus 1 [25]): 400 µg/mL (≈ 1540 µM); MIC (Human alphaherpesvirus 2 [26]): 400 µg/mL (≈ 1540 µM) |
| C[C@@]1(n2ccc(N)nc2=O)CS[C@H](CO)O1 | inactive | inactive | inactive | inactive | inactive | inactive | inactive | inactive | inactive | inactive | inactive | inactive | inactive | inactive |  |  |  |  |  |  |  |
| O=c1[nH]c(=O)n(C2S[C@@H](CO)[C@H](O)[C@H]2O)cc1F (stereo partly drawn) | inactive | inactive | inactive | inactive | inactive | inactive | inactive | inactive | inactive | inactive | inactive | inactive | inactive | inactive |  |  |  |  |  |  |  |
| Cc1cn([C@@H]2S[C@@H](CO)[C@H](O)[C@H]2O)c(=O)[nH]c1=O |  |  |  |  |  |  |  |  |  |  |  |  |  |  | 400 µg/mL (≈ 1460 µM) | 400 µg/mL (≈ 1460 µM) | 400 µg/mL (≈ 1460 µM) | 400 µg/mL (≈ 1460 µM) | 400 µg/mL (≈ 1460 µM) | 400 µg/mL (≈ 1460 µM) | MIC (Human alphaherpesvirus 1 [27]): 48 µg/mL (≈ 175 µM); MIC [20]: 400 µg/mL (≈ 1460 µM); MIC [21]: 400 µg/mL (≈ 1460 µM); MIC (Human respirovirus 3 [22]): 400 µg/mL (≈ 1460 µM); MIC [23]: 400 µg/mL (≈ 1460 µM); MIC (Human alphaherpesvirus 3 [24]): 400 µg/mL (≈ 1460 µM); MIC (Human alphaherpesvirus 2 [26]): 400 µg/mL (≈ 1460 µM) |
| O=c1ccn([C@@H]2S[C@@H](CO)[C@H](O)[C@H]2O)c(=O)[nH]1 |  |  |  |  |  |  |  |  |  |  |  |  |  |  | 400 µg/mL (≈ 1540 µM) | 400 µg/mL (≈ 1540 µM) | 400 µg/mL (≈ 1540 µM) | 400 µg/mL (≈ 1540 µM) | 400 µg/mL (≈ 1540 µM) | 400 µg/mL (≈ 1540 µM) | MIC [20]: 400 µg/mL (≈ 1540 µM); MIC [21]: 400 µg/mL (≈ 1540 µM); MIC (Human respirovirus 3 [22]): 400 µg/mL (≈ 1540 µM); MIC [23]: 400 µg/mL (≈ 1540 µM); MIC (Human alphaherpesvirus 3 [24]): 400 µg/mL (≈ 1540 µM); MIC (Human alphaherpesvirus 1 [25]): 400 µg/mL (≈ 1540 µM); MIC (Human alphaherpesvirus 2 [26]): 400 µg/mL (≈ 1540 µM) |
